pEC50: −log10 of the molar value. Read-outs that look alike come from different tables or passages of the source. Starred links: 1 amine or outer side, 2 acyl side, 3 side chain; linkers in the order of their positions; H or OH if unused. Non-standard residues stand in square brackets, D forms with d. Groups on a side chain read outwards from the residue. No end group written: not given here. *: point of attachment. C20 diacid = O=C(O)CCCCCCCCCCCCCCCCCCC(=O)*; C18 diacid = O=C(O)CCCCCCCCCCCCCCCCC(=O)*; γGlu = O=C(O)[C@H](CCC(=O)[*:2])N[*:1]; εLys = N[C@@H](CCCCN[*:1])C(=O)[*:2]; AEEA = NCCOCCOCC(=O)O; Aib = CC(C)(N)C(=O)O
Tests used:
Assay type in all cases: cell-based
Settings in all cases: CreLuc reporter gene assay
[1] = biological target: T1, hGLP1R (Homo sapiens, UniProt P43220); assay: hGLP1R CreLuc reporter gene assay in 0.5% and 100% plasma
T1 construct: expressed in transfected cells; host or cells: HEK-293 cells carrying a CRE-luciferase reporter gene
T1 sequence (P43220 24-463): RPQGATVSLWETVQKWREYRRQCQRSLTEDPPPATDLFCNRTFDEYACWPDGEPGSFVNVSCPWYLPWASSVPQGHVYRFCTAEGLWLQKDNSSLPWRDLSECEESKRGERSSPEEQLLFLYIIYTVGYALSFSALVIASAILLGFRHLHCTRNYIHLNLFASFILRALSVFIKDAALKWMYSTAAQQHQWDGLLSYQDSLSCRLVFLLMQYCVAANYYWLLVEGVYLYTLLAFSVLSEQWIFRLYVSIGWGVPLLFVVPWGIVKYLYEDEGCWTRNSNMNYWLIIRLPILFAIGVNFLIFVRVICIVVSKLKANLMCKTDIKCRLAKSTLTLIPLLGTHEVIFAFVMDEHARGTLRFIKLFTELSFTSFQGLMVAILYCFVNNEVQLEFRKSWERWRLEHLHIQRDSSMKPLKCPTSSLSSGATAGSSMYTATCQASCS
How it was run: (§1)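 HEK-293 cells co-expressing GLP-1 or NPY2 receptor and CHO cells expressing GIP receptor, each carrying a CRE-driven luciferase reporter, were stimulated with peptides for 4 hours at 37 °C. Luminescence was read after Bright-Glo addition. EC50 came from 8-point, four-decade curves fitted by variable-slope non-linear regression.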

[2] = biological target: T2, hGIPR (Homo sapiens, UniProt P48546); assay: hGIPR CreLuc reporter gene assay in 0.5% and 100% plasma
T2 construct: expressed in transfected cells; host or cells: CHO cells carrying a CRE-luciferase reporter gene
T2 sequence (P48546 22-466): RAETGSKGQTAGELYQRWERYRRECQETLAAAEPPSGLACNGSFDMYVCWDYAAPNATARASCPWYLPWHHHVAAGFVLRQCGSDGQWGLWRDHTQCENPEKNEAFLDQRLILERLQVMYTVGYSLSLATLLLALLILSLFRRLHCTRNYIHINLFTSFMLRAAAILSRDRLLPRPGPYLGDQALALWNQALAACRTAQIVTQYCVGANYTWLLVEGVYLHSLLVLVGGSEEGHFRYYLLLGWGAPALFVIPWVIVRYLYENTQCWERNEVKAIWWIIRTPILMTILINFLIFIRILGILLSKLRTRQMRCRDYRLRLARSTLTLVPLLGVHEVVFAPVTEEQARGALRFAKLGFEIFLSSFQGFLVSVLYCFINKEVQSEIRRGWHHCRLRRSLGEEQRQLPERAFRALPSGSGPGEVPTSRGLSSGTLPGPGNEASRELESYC
How it was run: as §1

[3] = biological target: T3, hNPY2R (Homo sapiens, UniProt P49146); assay: hNPY2R CreLuc reporter gene assay in 0.5% and 100% plasma
T3 construct: expressed in transfected cells; host or cells: HEK-293 cells carrying a CRE-luciferase reporter gene
T3 sequence (P49146 1-381): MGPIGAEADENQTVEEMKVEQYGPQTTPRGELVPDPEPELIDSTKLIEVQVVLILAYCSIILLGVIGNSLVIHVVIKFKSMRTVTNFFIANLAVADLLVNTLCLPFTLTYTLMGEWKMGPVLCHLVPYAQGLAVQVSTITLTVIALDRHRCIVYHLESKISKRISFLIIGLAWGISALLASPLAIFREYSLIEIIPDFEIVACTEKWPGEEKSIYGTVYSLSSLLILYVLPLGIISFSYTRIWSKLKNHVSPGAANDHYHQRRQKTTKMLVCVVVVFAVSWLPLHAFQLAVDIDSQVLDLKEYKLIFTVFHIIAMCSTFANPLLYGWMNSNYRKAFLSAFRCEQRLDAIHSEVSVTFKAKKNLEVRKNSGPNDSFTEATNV
How it was run: as §1

[4] = 0.5% human plasma, read-out: hGLP1R 0.5% hP
[5] = 0.5% human plasma, read-out: hGIPR 0.5% hP
[6] = 100% human plasma, read-out: hGIPR 100% hP
[7] = 0.5% human plasma, read-out: hNPY2R 0.5% hP
[8] = 100% human plasma, read-out: hNPY2R 100% hP
[9] = 100% human plasma, read-out: hGLP1R 100% hP

Molecule | pEC50 [1, 4] | pEC50 [2, 5] | pEC50 [2, 6] | pEC50 [3, 7] | pEC50 [3, 8] | pEC50 [1, 9]
H-Y[Aib]EGTFTSDYSI[Aib]LEKQAQ[Aib]AFVEWLIK([εLys-γGlu-γGlu-γGlu-γGlu-γGlu-γGlu-C20 diacid])GGPSSYVSLRHYYNWLTRQRY-NH2 [Compound 40, Y-Aib-E-G-T-F-T-S-D-Y-S-I-Aib-L-E-K-Q-A-Q-Aib-A-F-V-E-W-L-I-K(1,3)-GGPSSYVSLRHYYNWLTRQRY-NH2.C20DA-gGlu-gGlu-gGlu-gGlu-gGlu-gGlu-eLys(1,2)] | 9.34 | 9.32 | 8.36 | 7.92 | 7.58 | 
H-Y[Aib]EGTFTSDYSI[Aib]LEKQAQ[Aib]AFVQWLIK([εLys-γGlu-γGlu-γGlu-γGlu-γGlu-C20 diacid])GGPSEGASLRHYYNWLTRQRY-NH2 [Compound 242, Y-Aib-E-G-T-F-T-S-D-Y-S-I-Aib-L-E-K-Q-A-Q-Aib-A-F-V-Q-W-L-I-K(1,3)-GGPSEGASLRHYYNWLTRQRY-NH2.C20DA-gGlu-gGlu-gGlu-gGlu-gGlu-eLys(1,2)] | 9.89 | 9.49 | 8.76 |  | 7.54 | 
H-Y[Aib]EGTFTSDYSI[Aib]LEKQAQ[Aib]AFVEWLIK([εLys-γGlu-γGlu-γGlu-γGlu-γGlu-γGlu-C20 diacid])GGPSEPASLRHYYNWLTRQRY-NH2 [Compound 233, Y-Aib-E-G-T-F-T-S-D-Y-S-I-Aib-L-E-K-Q-A-Q-Aib-A-F-V-E-W-L-I-K(1,3)-GGPSEPASLRHYYNWLTRQRY-NH2.C20DA-gGlu-gGlu-gGlu-gGlu-gGlu-gGlu-eLys(1,2)] | 9.77 | 10.10 | 9.12 | 7.90 |  | 8.77
H-Y[Aib]EGTFTSDYSI[Aib]LEKQAE[Aib]AFVQWLIK([AEEA-AEEA-γGlu-γGlu-γGlu-γGlu-C18 diacid])GGPSEGASLRHYYNWLTRQRY-NH2 [Compound 156, Y-Aib-E-G-T-F-T-S-D-Y-S-I-Aib-L-E-K-Q-A-E-Aib-A-F-V-Q-W-L-I-K(1,3)-GGPSEGASLRHYYNWLTRQRY-NH2.C18DA-gGlu-gGlu-gGlu-gGlu-OEG-OEG(1,2)] | 9.74 | 9.80 |  | 7.87 | 7.58 | 
H-Y[Aib]EGTFTSDYSI[Aib]LEKQAQ[Aib]AFVEWLIK([AEEA-AEEA-γGlu-γGlu-γGlu-C18 diacid])GGPESGASLRHYYNWLTRQRY-NH2 [Compound 166, Y-Aib-E-G-T-F-T-S-D-Y-S-I-Aib-L-E-K-Q-A-Q-Aib-A-F-V-E-W-L-I-K(1,3)-GGPESGASLRHYYNWLTRQRY-NH2.C18DA-gGlu-gGlu-gGlu-OEG-OEG(1,2)] | 10.15 | 10.10 | 9.19 | 7.90 |  | 8.37

More lines, in order of rising pEC50 [1, 4], values ahead:

pEC50 [1, 4] | pEC50 [2, 5] | pEC50 [2, 6] | pEC50 [3, 7] | pEC50 [3, 8] | pEC50 [1, 9] | Molecule
9.59 | 10.00 | 8.93 | 7.75 |  | 8.51 | CC[C@H](C)[C@H](NC(=O)[C@H](CC(C)C)NC(=O)[C@H](Cc1c[nH]c2ccccc12)NC(=O)[C@H](CCC(=O)O)NC(=O)[C@@H](NC(=O)[C@H](Cc1ccccc1)NC(=O)[C@H](C)NC(=O)C(C)(C)NC(=O)[C@H](CCC(N)=O)NC(=O)[C@H](C)NC(=O)[C@H](CCC(N)=O)NC(=O)[C@H](CCCCN)NC(=O)[C@H](CCC(=O)O)NC(=O)[C@H](CC(C)C)NC(=O)C(C)(C)NC(=O)[C@@H](NC(=O)[C@H](CO)NC(=O)[C@H](Cc1ccc(O)cc1)NC(=O)[C@H](CC(=O)O)NC(=O)[C@H](CO)NC(=O)[C@@H](NC(=O)[C@H](Cc1ccccc1)NC(=O)[C@@H](NC(=O)CNC(=O)[C@H](CCC(=O)O)NC(=O)C(C)(C)NC(=O)[C@@H](N)Cc1ccc(O)cc1)[C@@H](C)O)[C@@H](C)O)[C@@H](C)CC)C(C)C)C(=O)N[C@@H](CCCCNC(=O)[C@@H](N)CCCCNC(=O)CC[C@H](NC(=O)CC[C@H](NC(=O)CC[C@H](NC(=O)CC[C@H](NC(=O)CC[C@H](NC(=O)CC[C@H](NC(=O)CCCCCCCCCCCCCCCCCCC(=O)O)C(=O)O)C(=O)O)C(=O)O)C(=O)O)C(=O)O)C(=O)O)C(=O)NCC(=O)NCC(=O)N1CCC[C@H]1C(=O)N[C@@H](CO)C(=O)N[C@@H](CCC(=O)O)C(=O)NCC(=O)N[C@@H](CCC(=O)O)C(=O)N[C@@H](CO)C(=O)N[C@@H](CC(C)C)C(=O)N[C@@H](CCCNC(=N)N)C(=O)N[C@@H](Cc1c[nH]cn1)C(=O)N[C@@H](Cc1ccc(O)cc1)C(=O)N[C@@H](Cc1ccc(O)cc1)C(=O)N[C@@H](CC(N)=O)C(=O)N[C@@H](Cc1c[nH]c2ccccc12)C(=O)N[C@@H](CC(C)C)C(=O)N[C@H](C(=O)N[C@@H](CCCNC(=N)N)C(=O)N[C@@H](CCC(N)=O)C(=O)N[C@@H](CCCNC(=N)N)C(=O)N[C@@H](Cc1ccc(O)cc1)C(N)=O)[C@@H](C)O [Compound 237, Y-Aib-E-G-T-F-T-S-D-Y-S-I-Aib-L-E-K-Q-A-Q-Aib-A-F-V-E-W-L-I-K(1,3)-GGPSEGESLRHYYNWLTRQRY-NH2.C20DA-gGlu-gGlu-gGlu-gGlu-gGlu-gGlu-eLys(1,2)]
9.66 | 9.77 | 8.90 | 7.94 | 7.41 | 8.11 | H-Y[Aib]EGTFTSDYSI[Aib]LEKQAE[Aib]AFVQWLIK([εLys-γGlu-γGlu-γGlu-γGlu-C18 diacid])GGPSEGASLRHYYNWLTRQRY-NH2 [Compound 174, Y-Aib-E-G-T-F-T-S-D-Y-S-I-Aib-L-E-K-Q-A-E-Aib-A-F-V-Q-W-L-I-K(1,3)-GGPSEGASLRHYYNWLTRQRY-NH2.C18DA-gGlu-gGlu-gGlu-gGlu-eLys(1,2)]
9.72 | 9.96 | 8.79 |  | 6.97 | 8.32 | H-Y[Aib]EGTFTSDYSI[Aib]LEKQAQ[Aib]AFVEWLIK([εLys-γGlu-γGlu-γGlu-γGlu-γGlu-γGlu-C20 diacid])GGPSSPESLRHYYNWLTRQRY-NH2 [Compound 73, Y-Aib-E-G-T-F-T-S-D-Y-S-I-Aib-L-E-K-Q-A-Q-Aib-A-F-V-E-W-L-I-K(1,3)-GGPSSPESLRHYYNWLTRQRY-NH2.C20DA-gGlu-gGlu-gGlu-gGlu-gGlu-gGlu-eLys(1,2)]
9.82 | 9.57 |  |  | 7.35 |  | H-Y[Aib]EGTFTSDYSI[Aib]LEKQAQ[Aib]AFVQWLIK([εLys-γGlu-γGlu-γGlu-γGlu-γGlu-γGlu-C20 diacid])GGPSEGVSLRHYYNWLTRQRY-NH2 [Compound 114, Y-Aib-E-G-T-F-T-S-D-Y-S-I-Aib-L-E-K-Q-A-Q-Aib-A-F-V-Q-W-L-I-K(1,3)-GGPSEGVSLRHYYNWLTRQRY-NH2.C20DA-gGlu-gGlu-gGlu-gGlu-gGlu-gGlu-eLys(1,2)]
9.89 | 9.64 | 8.73 | 7.83 |  | 8.41 | H-Y[Aib]EGTFTSDYSI[Aib]LEKQAQ[Aib]AFIEWLIK([γGlu-γGlu-γGlu-γGlu-C20 diacid])GGPSEGASLRHYYNWLTRQRY-NH2 [Compound 283, Y-Aib-E-G-T-F-T-S-D-Y-S-I-Aib-L-E-K-Q-A-Q-Aib-A-F-I-E-W-L-I-K(1,3)-GGPSEGASLRHYYNWLTRQRY-NH2.C20DA-gGlu-gGlu-gGlu-gGlu(1,2)]
9.92 | 9.27 |  |  | 7.30 |  | Y[Aib]EGTFTSDYSI[Aib]LEKQAQ[Aib]AFVQWLIK([Glu-γGlu-γGlu-γGlu-γGlu-C20 diacid])GGPSEGASLRHYYNWLTRQRY-NH2 [Compound 243, Y-Aib-E-G-T-F-T-S-D-Y-S-I-Aib-L-E-K-Q-A-Q-Aib-A-F-V-Q-W-L-I-K(1,3)-GGPSEGASLRHYYNWLTRQRY-NH2.C20DA-gGlu-gGlu-gGlu-gGlu-Glu(1,2)]
